# Literature values in patent US12221461B2, “Saponin adjuvant and evaluation method thereof” (OBI PHARMA, INC., priority 2018, dated 2025).
# Test system: antibody levels
# Details: previous study, Kensil et al., J. Immunol. 146, 431-437, 1991
row,Substance,boost of antibody levels (adjuvant effect)
1,QS-18,able to dramatically boost antibody levels
2,QS-21,able to dramatically boost antibody levels
3,QS-17,able to dramatically boost antibody levels
